Assay results reported in ChEMBL document CHEMBL1150999, “Synthesis and biological activities of new conformationally fixed analogues of ()-indolactam-V, the core structure of tumor-promoting teleocidins” (1995).

Key:
Assay type in all cases: functional
[1] = test system: Human gammaherpesvirus 4; assay: In vitro ability of compound to induce Epstein-Barr virus early antigen (EBV-EA) activity at 10 e-6 M concentration
[2] = test system: Human gammaherpesvirus 4; assay: In vitro ability of compound to induce Epstein-Barr virus early antigen (EBV-EA) activity at 10 e-7 M concentration
[3] = test system: Human gammaherpesvirus 4; assay: In vitro ability of compound to induce Epstein-Barr virus early antigen (EBV-EA) activity at 10 e-5 M concentration

SMILES | Activity [1] | Activity [2] | Activity [3]
Cc1ccc2[nH]cc3c2c1N(C)[C@@H](C(C)C)C(=O)N[C@H](CO)C3 | 1.4% | 0.3% | 9.4%
Cc1cc2ccc3[nH]cc4c3c2n1[C@@H](C(C)C)C(=O)N[C@H](CO)C4 | 34% | 12.7% | 36.1%
CC(C)[C@H]1C(=O)N[C@H](CO)Cc2c[nH]c3ccc4c(c23)N1[C@@H](C)C4 | 0.8% | 0.2% | 17.8%
CC(C)[C@H]1C(=O)N[C@H](CO)Cc2c[nH]c3ccc4c(c23)N1[C@H](C)C4 | 14.1% | 1.2% | 16%
CC(C)[C@H]1C(=O)N[C@H](CO)Cc2c[nH]c3cccc(c23)N1C [INDOLACTUM] | 19% | 7.7% | 35%
